Values after ≈ are worked out from the molar mass of the structure shown.
Assays:
[1] = Human microsome stability assay; assay type: in vitro ADME; conditions: human liver microsomes 0.5 mg/mL, 37° C., pH 7.4, NADPH regenerating system
Outline: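 Compound […] with 0.5 mg/mL human liver microsomal protein in 100 mM potassium phosphate pH 7.4, 10 min preincubation at 37 °C, started with NADPH regenerating system. Sampled 0–30 min, remaining compound by LC-MS/MS; clearance binned low <7, medium 7–16.2, high >16.2 mL/min/kg.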

[2] = tested on: Klebsiella pneumonia ATCC 43816; experiment: Minimal Inhibitory Concentration (MIC) broth dilution assay, K. pneumonia ATCC 43816; assay type: cell-based; conditions: Klebsiella pneumoniae, ATCC43816, 20 hours at 35° C., CAMHB, read-out: MIC K. p ATCC 43816
Outline: (§1)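 Broth microdilution with twofold compound series in cation-adjusted Mueller Hinton broth, inoculum 5×10^5 CFU/mL, applied to each strain. Plates incubated 20 h at 35 °C in ambient air. MIC […] recorded as the lowest concentration with no visible growth, read by eye.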

[3] = target: Escherichia coli UDP-2,3-diacylglucosamine hydrolase (LpxH) (Escherichia coli (strain K12), UniProt P43341); experiment: Enzymatic IC50 assay of Escherichia coli LpxH (UMP/CMP-Glo luminescence); assay type: biochemical; conditions: Enzymatic IC50 against Escherichia coli LpxH; read-out: IC50 (converted)
Escherichia coli UDP-2,3-diacylglucosamine hydrolase (LpxH), sequence (P43341 whole entry): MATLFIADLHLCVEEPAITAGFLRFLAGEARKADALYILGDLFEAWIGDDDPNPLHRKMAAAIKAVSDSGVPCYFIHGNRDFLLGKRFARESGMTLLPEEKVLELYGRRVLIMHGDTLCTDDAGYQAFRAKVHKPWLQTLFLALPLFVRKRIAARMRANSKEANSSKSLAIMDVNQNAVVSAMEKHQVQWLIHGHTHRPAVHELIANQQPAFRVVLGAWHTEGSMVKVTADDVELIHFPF
Outline: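 LpxH (2 nM) preincubated 10 min at room temperature with compound (100 μM to 1.7 nM) in Tris-HCl pH7.5 buffer with 2.5 mM MnCl2, then reacted with 5 μM UDP-DAG for 20 min. Reaction heat-stopped at 95° C.; released UMP converted to ATP and read by luciferase luminescence (UMP/CMP-Glo).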

[4] = tested on: Escherichia coli BW 25113; experiment: Minimal Inhibitory Concentration (MIC) broth dilution assay, E. coli BW 25113; assay type: cell-based; conditions: Escherichia coli, BW25113, 20 hours at 35° C., CAMHB, read-out: MIC E. coli K-12 BW 25113
Outline: as §1

[5] = tested on: Escherichia coli ATCC 25922; experiment: Minimal Inhibitory Concentration (MIC) broth dilution assay, E. coli ATCC 25922; assay type: cell-based; conditions: Escherichia coli, ATCC25922, 20 h, read-out: MIC E. coli ATCC 25922
Outline: as §1

SMILES | Clearance of Human microsome [1] [mL/min/kg] | MIC [2] [µg/mL] | IC50 [3] [nM] | MIC [4] [µg/mL] | MIC [5] [µg/mL]
NCCCNC(=O)C12CCC(C(F)(F)c3cc(Cl)nc(N4CCN(S(=O)(=O)c5ccc(N6C[C@H](N)CC6=O)cc5)CC4)c3)(CC1)C2 [Example 034, N-(3-aminopropyl)-4-[[2-chloro-6-[4-[4-[(4R)-4-amino-2-oxo-pyrrolidin-1-yl]phenyl]sulfonylpiperazin-1-yl]-4-pyridyl]-difluoro-methyl]norbornane-1-carboxamide] | 6.15 | 1.1 (≈ 1.62 µM) | 29.4 | 1.7 (≈ 2.5 µM) | 1.1 (≈ 1.62 µM)
NC(=O)[C@H]1CC[C@H](C(F)(F)c2cc(Cl)nc(N3CCN(S(=O)(=O)c4ccc(N5C[C@H](N)CC5=O)cc4)CC3)c2)CC1 [Example 014] | 6.15 | 1.1 (≈ 1.8 µM) | < 3.27 | 1.1 (≈ 1.8 µM) | 1.1 (≈ 1.8 µM)
N[C@@H]1C[C@H](N)CN(CCCNC(=O)[C@H]2CC[C@H](C(F)(F)c3cc(Cl)nc(N4CCN(S(=O)(=O)c5ccc(N6C[C@H](N)CC6=O)cc5)CC4)c3)CC2)C1 [Example 049, Trans-4-[[2-chloro-6-[4-[4-[(4R)-4-amino-2-oxo-pyrrolidin-1-yl]phenyl]sulfonylpiperazin-1-yl]-4-pyridyl]-difluoro-methyl]-N-[3-[cis-3,5-diamino-1-piperidyl]propyl]cyclohexanecarboxamide] | 7.38 | 1.2 (≈ 1.57 µM) | 9.13 | 0.6 (≈ 0.783 µM) | 1.2 (≈ 1.57 µM)
COC(CN)CNC(=O)[C@H]1CC[C@H](C(F)(F)c2cc(Cl)nc(N3CCN(S(=O)(=O)c4ccc(N5C[C@H](N)CC5=O)cc4)CC3)c2)CC1 (stereo partly drawn) [Example 076, Trans-N-(3-amino-2-methoxy-propyl)-4-[[2-chloro-6-[4-[4-[(4R)-4-amino-2-oxo-pyrrolidin-1-yl]phenyl]sulfonylpiperazin-1-yl]-4-pyridyl]-difluoro-methyl]cyclohexanecarboxamide] | 9.06 | 1.1 (≈ 1.58 µM) | < 2.86 | 1.1 (≈ 1.58 µM) | 1.1 (≈ 1.58 µM)
N[C@@H]1CC(=O)N(c2ccc(S(=O)(=O)N3CCN(c4cc(C(F)(F)[C@H]5CC[C@H](C(=O)NCCN6CCCC6)CC5)cc(Cl)n4)CC3)cc2)C1 [Example 009, Trans-4-[[2-chloro-6-[4-[4-[(4R)-4-amino-2-oxo-pyrrolidin-1-yl]phenyl]sulfonylpiperazin-1-yl]-4-pyridyl]-difluoro-methyl]-N-(2-pyrrolidin-1-ylethyl)cyclohexanecarboxamide] | 11.13 | 1.5 (≈ 2.12 µM) | < 2.82 | 1.5 (≈ 2.12 µM) | 1.5 (≈ 2.12 µM)
CC1(N)CCN(C(=O)[C@H]2CC[C@H](C(F)(F)c3cc(Cl)nc(N4CCN(S(=O)(=O)c5ccc(N6C[C@H](N)CC6=O)cc5)CC4)c3)CC2)CC1 [Example 004, Trans-(4R)-4-amino-1-[4-[4-[4-[[4-(4-amino-4-methyl-piperidine-1-carbonyl)cyclohexyl]-difluoro-methyl]-6-chloro-2-pyridyl]piperazin-1-yl]sulfonylphenyl]pyrrolidin-2-one] | 6.15 | 1.1 (≈ 1.55 µM) | 8.47 | 0.83 (≈ 1.17 µM) | 1.1 (≈ 1.55 µM)
NCCCNC(=O)[C@H]1CC[C@H](C(F)(F)c2cc(Cl)nc(N3CCN(S(=O)(=O)c4ccc(N5C[C@H](N)CC5=O)nc4)CC3)c2)CC1 [Example 061, Trans-N-(3-aminopropyl)-4-[[2-chloro-6-[4-[[6-[(4R)-4-amino-2-oxo-pyrrolidin-1-yl]-3-pyridyl]sulfonyl]piperazin-1-yl]-4-pyridyl]-difluoro-methyl]cyclohexanecarboxamide] | 6.15 | 1.1 (≈ 1.64 µM) | 2.99 | 1.1 (≈ 1.64 µM) | 1.1 (≈ 1.64 µM)
NCCNC(=O)c1cnc(C(F)(F)c2cc(Cl)nc(N3CCN(S(=O)(=O)c4ccc(N5C[C@H](N)CC5=O)cc4)CC3)c2)cn1 [Example 024, N-(2-aminoethyl)-5-[[2-chloro-6-[4-[4-[(4R)-4-amino-2-oxo-pyrrolidin-1-yl]phenyl]sulfonylpiperazin-1-yl]-4-pyridyl]-difluoro-methyl]pyrazine-2-carboxamide] | 11.22 | 0.69 (≈ 1.06 µM) | 4.61 | 0.69 (≈ 1.06 µM) | 0.69 (≈ 1.06 µM)
N[C@@H]1CC(=O)N(c2ccc(S(=O)(=O)N3CCN(c4cc(C(F)(F)[C@H]5CC[C@H](C(=O)NNC(=O)C6CCNCC6)CC5)cc(Cl)n4)CC3)cc2)C1 [Example 051, Trans-N′-[4-[[2-chloro-6-[4-[4-[(4R)-4-amino-2-oxo-pyrrolidin-1-yl]phenyl]sulfonylpiperazin-1-yl]-4-pyridyl]-difluoro-methyl]cyclohexanecarbonyl]piperidine-4-carbohydrazide] | 8.70 | 4.6 (≈ 6.24 µM) | 12.2 | 2.3 (≈ 3.12 µM) | 4.6 (≈ 6.24 µM)
NCC(O)CNC(=O)[C@H]1CC[C@H](C(F)(F)c2cc(Cl)nc(N3CCN(S(=O)(=O)c4ccc(N5C[C@H](N)CC5=O)cc4)CC3)c2)CC1 (stereo partly drawn) [Example 036, Trans-N-(3-amino-2-hydroxy-propyl)-4-[[2-chloro-6-[4-[4-[(4R)-4-amino-2-oxo-pyrrolidin-1-yl]phenyl]sulfonylpiperazin-1-yl]-4-pyridyl]-difluoro-methyl]cyclohexanecarboxamide] | 6.15 | 1.1 (≈ 1.61 µM) | 5.85 | 1.1 (≈ 1.61 µM) | 1.1 (≈ 1.61 µM)
NCCCNC(=O)[C@H]1CC[C@H](C(F)(F)c2cc(Cl)nc(N3CCN(S(=O)(=O)c4ccc(N5CC(N6CCNCC6)CC5=O)cc4)CC3)c2)CC1 (stereo partly drawn) [Example 060, Trans-N-(3-aminopropyl)-4-[[2-chloro-6-[4-[4-(2-oxo-4-piperazin-1-yl-pyrrolidin-1-yl)phenyl]sulfonylpiperazin-1-y1]-4-pyridyl]-difluoro-methyl]cyclohexanecarboxamide] | 8.12 | 1.2 (≈ 1.63 µM) | < 2.71 | 2.4 (≈ 3.26 µM) | 1.8 (≈ 2.44 µM)
NC1CC(NC(=O)[C@H]2CC[C@H](C(F)(F)c3cc(Cl)nc(N4CCN(S(=O)(=O)c5ccc(N6C[C@H](N)CC6=O)cc5)CC4)c3)CC2)C1 (stereo partly drawn) [Example 007, Trans-N-(3-aminocyclobutyl)-4-[[2-chloro-6-[4-[4-[(4R)-4-amino-2-oxo-pyrrolidin-1-yl]phenyl]sulfonylpiperazin-1-yl]-4-pyridyl]-difluoro-methyl]cyclohexanecarboxamide] | 6.90 | 0.53 (≈ 0.779 µM) | 7.35 | 1.1 (≈ 1.62 µM) | 1.1 (≈ 1.62 µM)
NCCN(CCN)C(=O)[C@H]1CC[C@H](C(F)(F)c2cc(Cl)nc(N3CCN(S(=O)(=O)c4ccc(N5C[C@H](N)CC5=O)cc4)CC3)c2)CC1 [Example 043] | 9.94 | 1.1 (≈ 1.58 µM) | 35.9 | 1.1 (≈ 1.58 µM) | 0.57 (≈ 0.817 µM)
NCCCNC(=O)[C@H]1CC[C@H](C(F)(F)c2cc(Cl)nc(N3CCN(S(=O)(=O)c4ccc(N5C[C@H](CO)OC5=O)cc4)CC3)c2)CC1 [Example 059, Trans-N-(3-aminopropyl)-4-[[2-chloro-6-[4-[4-[(5R)-5-(hydroxymethyl)-2-oxo-oxazolidin-3-yl]phenyl]sulfonylpiperazin-1-yl]-4-pyridyl]-difluoro-methyl]cyclohexanecarboxamide] | 6.15 | 1.2 (≈ 1.75 µM) | < 2.92 | 1.2 (≈ 1.75 µM) | 1.2 (≈ 1.75 µM)
NCCOCCNC(=O)[C@H]1CC[C@H](C(F)(F)c2cc(Cl)nc(N3CCN(S(=O)(=O)c4ccc(N5C[C@H](N)CC5=O)cc4)CC3)c2)CC1 [Example 042, Trans-N-[2-(2-aminoethoxy)ethyl]-4-[[2-chloro-6-[4-[4-[(4R)-4-amino-2-oxo-pyrrolidin-1-yl]phenyl]sulfonylpiperazin-1-yl]-4-pyridyl]-difluoro-methyl]cyclohexanecarboxamide] | 11.12 | 2.3 (≈ 3.29 µM) | 11.5 | 2.3 (≈ 3.29 µM) | 2.3 (≈ 3.29 µM)
CN(CCN)C(=O)[C@H]1CC[C@H](C(F)(F)c2cc(Cl)nc(N3CCN(S(=O)(=O)c4ccc(N5C[C@H](N)CC5=O)cc4)CC3)c2)CC1 [Example 030, Trans-N-(2-aminoethyl)-4-[[2-chloro-6-[4-[4-[(4R)-4-amino-2-oxo-pyrrolidin-1-yl]phenyl]sulfonylpiperazin-1-yl]-4-pyridyl]-difluoro-methyl]-N-methyl-cyclohexanecarboxamide] | 6.90 | 1.7 (≈ 2.54 µM) | 8.98 | 1.7 (≈ 2.54 µM) | 1.1 (≈ 1.65 µM)
